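Dose response: 5 concentrations. Exposure: 48 h. Format: 96-well plates. Endpoint: linear interpolation; highest concentration if not reached. The concentration for full growth arrest is given as TGI.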
Columns and labels:
Assay in all cases: inhibition of tumour cell growth, NCI panel, 48 h
786-0 renal = test system: 786-0 renal
A498 renal = test system: A498 renal
A549 NSCLC = test system: A549 NSCLC
ACHN renal = test system: ACHN renal
BT-549 breast = test system: BT-549 breast
CAKI-1 renal = test system: CAKI-1 renal
CCRF-CEM leukemia = test system: CCRF-CEM leukemia
COLO 205 colon = test system: COLO 205 colon
DU-145 prostate = test system: DU-145 prostate
EKVX NSCLC = test system: EKVX NSCLC
HCC-2998 colon = test system: HCC-2998 colon
HCT-116 colon = test system: HCT-116 colon
HCT-15 colon = test system: HCT-15 colon
HL-60(TB) leukemia = test system: HL-60(TB) leukemia
HOP-62 NSCLC = test system: HOP-62 NSCLC
HOP-92 NSCLC = test system: HOP-92 NSCLC
HS 578T breast = test system: HS 578T breast
HT29 colon = test system: HT29 colon
IGROV1 ovarian = test system: IGROV1 ovarian
K-562 leukemia = test system: K-562 leukemia
KM12 colon = test system: KM12 colon
LOX IMVI melanoma = test system: LOX IMVI melanoma
M14 melanoma = test system: M14 melanoma
MALME-3M melanoma = test system: MALME-3M melanoma
MCF7 breast = test system: MCF7 breast
MDA-MB-231 breast = test system: MDA-MB-231 breast
MDA-MB-435 = test system: MDA-MB-435
MDA-N = test system: MDA-N
MOLT-4 leukemia = test system: MOLT-4 leukemia
NCI-H226 lung = test system: NCI-H226 lung
NCI-H23 lung = test system: NCI-H23 lung
NCI-H460 lung = test system: NCI-H460 lung
NCI-H522 lung = test system: NCI-H522 lung
NCI/ADR-RES ovarian = test system: NCI/ADR-RES ovarian
OVCAR-3 ovarian = test system: OVCAR-3 ovarian
OVCAR-4 ovarian = test system: OVCAR-4 ovarian
OVCAR-5 ovarian = test system: OVCAR-5 ovarian
OVCAR-8 ovarian = test system: OVCAR-8 ovarian
PC-3 prostate = test system: PC-3 prostate
RPMI-8226 leukemia = test system: RPMI-8226 leukemia
RXF 393 renal = test system: RXF 393 renal
SF-268 CNS = test system: SF-268 CNS
SF-295 CNS = test system: SF-295 CNS
SF-539 CNS = test system: SF-539 CNS
SK-MEL-2 melanoma = test system: SK-MEL-2 melanoma
SK-MEL-28 melanoma = test system: SK-MEL-28 melanoma
SK-MEL-5 melanoma = test system: SK-MEL-5 melanoma
SK-OV-3 ovarian = test system: SK-OV-3 ovarian
SN12C renal = test system: SN12C renal
SNB-19 CNS = test system: SNB-19 CNS
SNB-75 CNS = test system: SNB-75 CNS
SW-620 colon = test system: SW-620 colon
T-47D breast = test system: T-47D breast
TK-10 renal = test system: TK-10 renal
U251 CNS = test system: U251 CNS
UACC-257 melanoma = test system: UACC-257 melanoma
UACC-62 melanoma = test system: UACC-62 melanoma
UO-31 renal = test system: UO-31 renal
SR leukemia = test system: SR leukemia

Measured: TGI

NC1=CN(CCCO)C2=N/C(=C\c3ccccc3)C(=O)N12
not listed: SR leukemia
> 100 µM: all other assays above

COc1ccc(N=N/C(=N/NC(=O)c2ccc(C)cc2)c2ccc(N(CCC#N)CCC#N)cc2OC)cc1
not listed: CCRF-CEM leukemia | HL-60(TB) leukemia | RPMI-8226 leukemia | SF-539 CNS | SNB-75 CNS
> 100 µM: all other assays above

O=C(CSc1nc2ccc([N+](=O)[O-])cc2s1)c1ccc2ccccc2c1
not listed: SR leukemia
> 100 µM: all other assays above

Source: PubChem BioAssay (NCI)
